Results as given in paper PMC11492426, “Design, synthesis, and biological evaluation of novel quinoline-based EGFR/HER-2 dual-target inhibitors as potential anti-tumor agents” (RSC Advances, 2024).
Like-named read-outs stand apart in the source and are kept apart here.

Assays:
[1] = tested on: MCF-7 breast cancer cell line; assay: Antiproliferative assay, MCF-7; assay type: cell-based; conditions: Homo sapiens, MCF7; MCF-7 breast cancer cells; read-out: Antiproliferative activity IC50 ± SEM, MCF-7
[2] = tested on: four human cancer cell lines (A-549, MCF-7, Panc-1, HT-29); assay: Antiproliferative assay, average over four cancer cell lines; assay type: cell-based; conditions: Homo sapiens, average IC50 over the four cancer cell lines
[3] = target: T1, EGFR (Homo sapiens, UniProt P00533); assay: EGFR inhibitory assay (EGFR-TK assay)
[4] = target: HER2 (Homo sapiens, UniProt P04626); assay: HER2 inhibitory assay (ADP-Glo kinase assay)
[5] = tested on: Panc-1 pancreatic cancer cell line; assay: Antiproliferative assay, Panc-1; assay type: cell-based; conditions: Homo sapiens; Panc-1 pancreatic cancer cells; read-out: Antiproliferative activity IC50 ± SEM, Panc-1
[6] = tested on: HT-29 colon cancer cell line; assay: Antiproliferative assay, HT-29; assay type: cell-based; conditions: Homo sapiens; HT-29 colon cancer cells; read-out: Antiproliferative activity IC50 ± SEM, HT-29
[7] = tested on: A-549 lung cancer cell line; assay: Antiproliferative assay, A-549; assay type: cell-based; conditions: Homo sapiens, A549; A-549 lung cancer cells; read-out: Antiproliferative activity IC50 ± SEM, A-549
[8] = Cell viability assay (MTT) on MCF-10A normal cells; assay type: cell-based; conditions: human, MCF-10A mammary gland epithelial normal cells, MCF-10A cells, four-day incubation
Procedure: The impact of compounds 3a–h and 5a–d on cell viability was evaluated using the human mammary (MCF-10A) gland epithelium normal cell line. The MTT assay was used to evaluate the cell viability of 3a–h and 5a–d after a four-day incubation period on MCF-10A cells.[46] Refer to Appendix A for more details.
The effect of new compounds 3a–h and 5a–d on cell viability was evaluated using the MCF-10A (human mammary gland epithelium) normal cell line.
4.2. Biological evaluation
4.2.1 Cell Viability assay (MTT assay)
MTT assay was performed to investigate the effect of the synthesized compounds on mammary epithelial cells (MCF-10A). The cells were propagated in medium consisting of Ham's F-12 medium/ Dulbecco's modified Eagle's medium (DMEM) (1:1) supplemented with 10% foetal calf serum, 2 mM glutamine, insulin (10 μg/mL), hydrocortisone (500 ng/mL) and epidermal growth factor (20 ng/mL). Trypsin ethylenediamine tetra acetic acid (EDTA) was used to passage the cells after every 2-3 days. 96-well flat-bottomed cell culture plates were used to seed the cells at a density of 10^4 cells mL-1. The medium was aspirated from all the wells of culture plates after 24 h followed by the addition of synthesized compounds (in 200 μL medium to yield a final concentration of 0.1% (v/v) dimethyl sulfoxide) into individual wells of the plates. Four wells were designated to a single compound. The plates were allowed to incubate at 37°C for 96 h. Afterwards, the medium was aspirated and 3-[4,5-dimethylthiazol-2-yl]-2,5-diphenyltetrazolium bromide (MTT) (0.4 mg/mL) in medium was added to each well and subsequently incubated for 3 h. The medium was aspirated and 150 μL dimethyl sulfoxide (DMSO) was added to each well. The plates were vortexed followed by the measurement of absorbance at 540 nm on a microplate reader. The results were presented as inhibition (%) of proliferation in contrast to controls comprising 0.1% DMSO.

[9] = tested on: four human cancer cell lines; design: method as in ref 39 = [39]; Mohassab A. M. Hassan H. A. Abou-Zied H. A. Fujita M. Otsuka M. Gomaa H. A. Youssif B. G. Abdel-Aziz M. J. Mol. Struct. 2024 1297 136953; conditions: read-out: GI50 against four cancer cell lines; cited from earlier work
[10] = target: T1, EGFR; design: 645–1186; His6 (N); made in house; host or cells: Sf-9 insect cells (baculovirus vectors pBlueBacHis2B / pFASTBacHTc); method as in ref 38 (Makawana et al.); conditions: ref 38 (Makawana et al.); cited from earlier work
[11] = tested on: BRAF^V600E; design: method as in PMID 33279248; conditions: cited from earlier work
[12] = tested on: BRAF^V600E; design: method as in ref 39 = [39]; Mohassab A. M. Hassan H. A. Abou-Zied H. A. Fujita M. Otsuka M. Gomaa H. A. Youssif B. G. Abdel-Aziz M. J. Mol. Struct. 2024 1297 136953; conditions: cited from earlier work
[13] = tested on: Bax; assay: Bax activation assay in MCF-7 cells; assay type: cell-based, human
Procedure: This lysate was diluted in Standard Diluent Buffer over the range of the assay and measured for human active caspase-8 content. (Cells are Plated in a density of 1.2 – 1.8 × 10,000 cells/well in a volume of 100µl complete growth medium + 100 ul of the tested compound per well in a 96-well plate for 24 hours before the enzyme assay for […].). […]
4.2.7. Bax activation assay
Bring all reagents, except the human Bax-α Standard, to room temperature for at least 30 minutes prior to opening. The human Bax-α Standard solution should not be left at room temperature for more than 10 minutes. All standards, controls and samples should be run in duplicate. Refer to the Assay Layout Sheet to determine the number of wells to be used and put any remaining wells with the desiccant back into the pouch and seal the ziploc. Store unused wells at 4 °C. Pipet 100 μL of Assay Buffer into the S0 (0 pg/mL standard) wells. Pipet 100 μL of Standards #1 through #6 into the appropriate wells. Pipet 100 μL of the Samples into the appropriate wells. Tap the plate gently to mix the contents. Seal the plate and incubate at room temperature on a plate shaker for 1 hour at ~500 rpm. Empty the contents of the wells and wash by adding 400 μL of wash solution to every well.
Repeat the wash 4 more times for a total of 5 washes. After the final wash, empty or aspirate the wells and firmly tap the plate on a lint free paper towel to remove any remaining wash buffer. Pipet 100 μL of yellow Antibody into each well, except the Blank. Seal the plate and incubate at room temperature on a plate shaker for 1 hour at ~500 rpm. Empty the contents of the wells and wash by adding 400 μL of wash solution to every well. Repeat the wash 4 more times for a total of 5 washes.
After the final wash, empty or aspirate the wells and firmly tap the plate on a lint free paper towel to remove any remaining wash buffer. Add 100 μL of blue Conjugate to each well, except the Blank.
Seal the plate and incubate at room temperature on a plate shaker for 30 minutes at ~500 rpm. Empty the contents of the wells and wash by adding 400 μL of wash solution to every well. Repeat the wash 4 more times for a total of 5 washes. After the final wash, empty or aspirate the wells and firmly tap […]
the plate on a lint free paper towel to remove any remaining wash buffer. Pipet 100 μL of Substrate Solution into each well. Incubate for 30 minutes at room temperature on a plate shaker at ~500 rpm.
Pipet 100 μL Stop Solution to each well. Blank the plate reader against the Blank wells, read the optical density at 450 nm. Calculate the average net Optical Density (OD) bound for each standard and sample by subtracting the average Blank OD from the average OD for each standard and sample.
Using linear graph paper, plot the Average Net OD for each standard versus Bax concentration in each standard. Approximate a straight line through the points. The concentration of Bax in the unknowns can be determined by interpolation. […]
Remove plate cover and empty the wells. […]
Incubate the microwell strips at room temperature (18° to 25°C) for about 15 minutes, if

[14] = tested on: Caspase-8; assay: Caspase-8 activation assay in MCF-7 cells; assay type: cell-based, human
[15] = tested on: Bcl-2; assay: Bcl-2 inhibition assay in MCF-7 cells; assay type: cell-based, human
Procedure: Additionally, the treatment led to a notable reduction in anti-apoptotic Bcl-2 expression levels, with a fold decrease of roughly 6 for compound 3e and 8 for compound 5a. Compounds 3e and 5a markedly elevated the Bax/Bcl-2 ratio compared to the control untreated cells. […]
4.2.8. Bcl-2 inhibition assay
Mix all reagents thoroughly without foaming before use. Wash the microwells twice with approximately 300 μL Wash Buffer per well with thorough aspiration of microwell contents between washes. Take caution not to scratch the surface of the microwells. After the last wash, empty the wells and tap microwell strips on absorbent pad or paper towel to remove excess Wash Buffer. Use the microwell strips immediately after washing or place upside down on a wet absorbent paper for not […]
longer than 15 minutes. […] Add 100 μL of Sample Diluent in duplicate to all standard wells and to the blank wells. Prepare standard (1:2 dilution) in duplicate ranging from 32 ng/mL to 0.5 ng/mL. Add 100 μL of Sample Diluent, in duplicate, to the blank wells. Add 80 μL of Sample Diluent, in duplicate, to the sample wells. Add 20 μL of each Sample, in duplicate, to the designated wells. Add 50 μL of diluted biotin-conjugate to all wells, including the blank wells. Cover with a plate cover and incubate at room temperature, on a microplate shaker at 100 rpm if available, for 2 hours. Remove plate cover and empty the wells. Wash microwell strips 3 times as described in step 2. Add 100 μL of diluted Streptavidin-HRP to all wells, including the blank wells. Cover with a plate cover and incubate at room temperature, on a microplate shaker at 100 rpm if available, for 1 hour. Remove plate cover and empty the wells. Wash microwell strips 3 times as described in step 2.
Proceed to the next step. Pipette 100 μl of mixed TMB Substrate Solution to all wells, including the blanks. Incubate the microwell strips at room temperature (18° to 25°C) for about 15 minutes, if available on a rotator set at 100 rpm. Avoid direct exposure to intense light. The point, at which the substrate reaction is stopped, is often determined by the ELISA reader. Many ELISA readers record absorbance only up to 2.0 O.D. Therefore, the color development within individual microwells must be watched by the person running the assay and the substrate reaction stopped before positive wells are no longer properly detectable. Stop the enzyme reaction by quickly pipetting 100 μL of Stop Solution into each well, including the blank wells. It is important that the Stop Solution is spread quickly and uniformly throughout the microwells to completely inactivate the enzyme. Results must be read immediately after the Stop Solution is added or within one hour if the microwell strips are stored at 2 - 8°C in the dark. Read absorbance of each microwell on a spectrophotometer using 450 nm as the primary wavelength.
4.3. Statistical analysis
Computerized Prism 5 program was used to statistically analyzed data using one-way ANOVA test followed by Tukey’s as post ANOVA for multiple comparison at P ≤.05. Data were presented as […]

[16] = tested on: Caspase-3; assay: Caspase-3 activation assay in MCF-7 cells; assay type: cell-based, human

T1 sequence (P00533 669-1210): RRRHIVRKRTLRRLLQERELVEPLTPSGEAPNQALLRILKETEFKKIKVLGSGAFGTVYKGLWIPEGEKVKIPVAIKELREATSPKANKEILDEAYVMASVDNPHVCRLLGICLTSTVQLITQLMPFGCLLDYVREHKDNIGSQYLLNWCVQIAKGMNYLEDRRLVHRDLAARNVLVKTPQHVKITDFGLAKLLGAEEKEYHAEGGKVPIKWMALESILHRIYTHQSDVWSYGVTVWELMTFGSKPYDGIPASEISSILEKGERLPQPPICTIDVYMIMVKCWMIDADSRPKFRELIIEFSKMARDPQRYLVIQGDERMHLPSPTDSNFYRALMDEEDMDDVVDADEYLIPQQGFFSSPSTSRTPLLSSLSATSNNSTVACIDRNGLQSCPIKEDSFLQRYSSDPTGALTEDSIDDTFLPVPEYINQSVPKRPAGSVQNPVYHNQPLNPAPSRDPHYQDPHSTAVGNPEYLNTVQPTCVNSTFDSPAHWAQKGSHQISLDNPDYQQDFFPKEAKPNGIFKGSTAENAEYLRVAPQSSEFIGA
Chain of HER2 (P04626 676-1255 limits assumed): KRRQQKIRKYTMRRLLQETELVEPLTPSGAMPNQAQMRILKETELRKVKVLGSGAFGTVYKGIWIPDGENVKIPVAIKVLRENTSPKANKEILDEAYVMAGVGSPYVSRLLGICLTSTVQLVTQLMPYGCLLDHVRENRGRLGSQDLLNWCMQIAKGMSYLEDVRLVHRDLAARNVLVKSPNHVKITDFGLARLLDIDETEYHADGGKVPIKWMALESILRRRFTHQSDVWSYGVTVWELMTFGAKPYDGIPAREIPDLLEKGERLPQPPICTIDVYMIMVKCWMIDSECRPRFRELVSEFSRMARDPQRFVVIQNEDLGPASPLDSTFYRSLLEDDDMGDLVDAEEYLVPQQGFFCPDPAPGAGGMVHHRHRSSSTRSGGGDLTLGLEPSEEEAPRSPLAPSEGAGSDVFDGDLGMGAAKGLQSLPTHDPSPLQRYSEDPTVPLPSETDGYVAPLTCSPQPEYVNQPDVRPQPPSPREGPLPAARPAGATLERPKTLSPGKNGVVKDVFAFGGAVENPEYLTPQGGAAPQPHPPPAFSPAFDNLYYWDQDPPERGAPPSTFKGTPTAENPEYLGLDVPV

## Cc1ccc2[nH]c(=O)c(C=Nc3ccc(NS(=O)(=O)c4ncccn4)cc3)c(O)c2c1 [Compound 5b, N-(4-(((4-hydroxy-6-methyl-2-oxo-1,2-dihydroquinolin-3-yl)methylene)amino)phenyl)pyrimidine-2-sulfonamide]
[1]
  IC50: 0.035 ± 0.004 µM
[2]
  GI50: 0.039 µM
[3]
  IC50: 0.085 ± 0.005 µM
[4]
  IC50: 0.047 ± 0.003 µM
[5]
  IC50: 0.041 ± 0.004 µM
[6]
  IC50: 0.04 ± 0.003 µM
[7]
  IC50: 0.039 ± 0.004 µM
[8]
  viability at 96 h, 50 µM: 90%

## Cn1c(=O)c(C=Nc2ccc(NS(=O)(=O)c3ncccn3)cc2)c(O)c2ccccc21 [Compound 5d, N-(4-(((4-hydroxy-1-methyl-2-oxo-1,2-dihydroquinolin-3-yl)methylene)amino)phenyl)pyrimidine-2-sulfonamide]
[1]
  IC50: 0.042 ± 0.004 µM
[2]
  GI50: 0.046 µM
[3]
  IC50: 0.093 ± 0.005 µM
[4]
  IC50: 0.053 ± 0.003 µM
[5]
  IC50: 0.048 ± 0.004 µM
[6]
  IC50: 0.048 ± 0.004 µM
other
  melting point: 318 to 320 °C
[7]
  IC50: 0.046 ± 0.004 µM
[8]
  viability at 96 h, 50 µM: 90%

## CC(=NO)c1ccc(NC(=O)c2cc(-c3ccc(S(C)(=O)=O)cc3)nc3ccccc23)cc1 [Compound VIII]
[9]
  GI50: 1.2 µM

## COc1ccc(Oc2nc3ccc(C)cc3cc2/C=N/NC(=O)Cn2cc([N+](=O)[O-])nc2C)cc1 [Compound VII]
[10]
  IC50: 0.12 ± 0.05 µM

## C#Cc1cccc(Nc2ncnc3cc(OCCOC)c(OCCOC)cc23)c1 [Erlotinib, reference compound]
[1]
  IC50: 0.04 ± 0.003 µM
[5]
  IC50: 0.03 ± 0.003 µM
[6]
  IC50: 0.03 ± 0.003 µM
[11]
  IC50: […]
[12]
  IC50: […]
[7]
  IC50: 0.03 ± 0.003 µM

## CN[C@@H]1C[C@H]2O[C@@](C)([C@@H]1OC)n1c3ccccc3c3c4c(c5c6ccccc6n2c5c31)C(=O)NC4 [Staurosporine, reference compound]
[13]; treated at IC50 values
  Bax Conc.: 288 ± 2 pg/mL
[13]; versus untreated control
  Bax Fold change: 32
[14]; treated at IC50 concentration
  Caspase-8 Conc.: 1.60 ± 0.10 ng/mL
[14]; versus untreated control
  Caspase-8 Fold change: 18
[15]; treated at IC50 values
  Bcl-2 Conc.: 1.00 ng/mL
[15]; versus untreated control
  Bcl-2 Fold reduction: 5
[16]; treated at IC50 concentration
  Caspase-3 Conc.: 465 ± 4 pg/mL
[16]; versus untreated control
  Caspase-3 Fold change: 7

## COc1cccc2c1C(=O)c1c(O)c3c(c(O)c1C2=O)C[C@@](O)(C(=O)CO)C[C@@H]3O[C@H]1C[C@H](N)[C@H](O)[C@H](C)O1 [doxorubicin]
[9]
  GI50: 1.4 µM
